Measured values reported in patent publication US9375457B2, “Composition comprising Rhizoma coptidis, Cortex phellodendri and Fructus gardeniae and for treating neurodegenerative diseases” (Hong Kong Baptist University, priority 2013, dated 2016).

Test system: Aβ plaques in TgCRND8 mice
Experiment: Immunohistochemistry of Aβ plaque burden in TgCRND8 mice
Type: in vivo
Details: oral, 25 mg/kg per day, 3 months, 4G8 immunostaining, p<0.05
Description: All animal handling experiments were approved by the Hong Kong Baptist University Committee on the Use of Human and Animal Subjects in Teaching and Research (HASC, approval #: 12-13/0030). TgCRND8 mice expressing human APP with Swedish (K670N/M671L) and Indiana (V717F) mutations were used to evaluate the effect of baicalein on Aβ. Heterozygous TgCRND8 mice on a C57BL/6J background were used to breed a colony of experimental animals. […]
Immunohistochemistry and image analysis of Aβ plaques is performed on coronal brain sections from TgCRND8 mice treated with baicalein or tap water as described previously by Durairajan et al. 2012. […] Images are obtained with a Nikon fluorescent inverted microscope with digital Nikon camera and analyzed by Image J software. Aβ plaque burden is calculated as the area occupied by the Aβ plaques as a percentage of total area of the brain sections.

O=c1cc(-c2ccccc2)oc2cc(O)c(O)c(O)c12 [baicalein]
increase of area occupied by Aβ deposits in cortex and hippocampus: 44%
